Measurements published in the supplement of paper PMC11061612.

Legend:
Capivasertib = compound: C1CN(CCC1(C(=O)N[C@@H](CCO)C2=CC=C(C=C2)Cl)N)C3=NC=NC4=C3C=CN4 [Capivasertib]; conditions: max 10 µM
Procedure, shortened: (§1)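 In 1536-well plates, cancer cell lines in 7.5 μl DMEM/F12 or RPMI with 10% FBS spent 24 hours at 37°C and 5% CO2 and were then dosed for 72 hours with final DMSO typically 0.2%. Viability was read by CellTiter-Glo 2.0 luminescence and scaled between blank-well and DMSO-well means. The single-agent IC50 was fitted from dose responses using a logistic curve in a non-linear mixed effects model, and that logistic curve had two parameters.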

AZD1775 = compound: C=CCn1c(=O)c2cnc(Nc3ccc(N4CCN(C)CC4)cc3)nc2n1-c1cccc(C(C)(C)O)n1 [AZD1775]; conditions: max 3 µM
Procedure, shortened: as §1

Trametinib = compound: CC(=O)Nc1cccc(-n2c(=O)n(C3CC3)c(=O)c3c(Nc4ccc(I)cc4F)n(C)c(=O)c(C)c32)c1 [Trametinib]; conditions: max 1 µM
Procedure, shortened: as §1

Palbociclib = compound: CC(=O)c1c(C)c2cnc(Nc3ccc(N4CCNCC4)cn3)nc2n(C2CCCC2)c1=O [Palbociclib]; conditions: max 10 µM
Procedure, shortened: as §1

AZD1390 = compound: CC(C)n1c(=O)n(C)c2cnc3cc(F)c(-c4ccc(OCCCN5CCCCC5)nc4)cc3c21 [AZD1390]; conditions: max 0.3 µM
Procedure, shortened: as §1

Venetoclax = compound: CC1(C)CCC(CN2CCN(c3ccc(C(=O)NS(=O)(=O)c4ccc(NCC5CCOCC5)c([N+](=O)[O-])c4)c(Oc4cnc5[nH]ccc5c4)c3)CC2)=C(c2ccc(Cl)cc2)C1 [Venetoclax]; conditions: max 1 µM
Procedure, shortened: as §1

Dasatinib = compound: CC1=C(C(=CC=C1)Cl)NC(=O)C2=CN=C(S2)NC3=CC(=NC(=N3)C)N4CCN(CC4)CCO [Dasatinib]; conditions: max 2 µM
Procedure, shortened: as §1

SG3199 = compound: CC1=CN2[C@@H](C1)C=NC3=CC(=C(C=C3C2=O)OC)OCCCCCOC4=C(C=C5C(=C4)N=C[C@@H]6CC(=CN6C5=O)C)OC [SG3199]; conditions: max 0.001 µM
Procedure, shortened: as §1

AZD2811 = compound: CCN(CCO)CCCOc1ccc2c(Nc3cc(CC(=O)Nc4cccc(F)c4)[nH]n3)ncnc2c1 [AZD2811]; conditions: max 1 µM
Procedure, shortened: as §1

SN-38 = compound: CCc1c2c(nc3ccc(O)cc13)-c1cc3c(c(=O)n1C2)COC(=O)[C@]3(O)CC [SN-38]; conditions: max 0.3 µM
Procedure, shortened: as §1

AZD0156 = compound: CN(C)CCCOc1ccc(-c2ccc3ncc4c(c3c2)n(C2CCOCC2)c(=O)n4C)cn1 [AZD0156]; conditions: max 3 µM
Procedure, shortened: as §1

AZD4320 = compound: CN(CC[C@H](CSC1=CC=CC=C1)NC2=C(C=C(C=C2)S(=O)(=O)NC(=O)C3=CC=C(C=C3)N4CCC(CC4)[C@H](C5=CC=CC=C5C6=CC=C(C=C6)Cl)O)S(=O)(=O)C(F)(F)F)CCO [AZD4320]; conditions: max 1 µM
Procedure, shortened: as §1

Alisertib = compound: COc1cc(Nc2ncc3c(n2)-c2ccc(Cl)cc2C(c2c(F)cccc2OC)=NC3)ccc1C(=O)O [Alisertib]; conditions: max 10 µM
Procedure, shortened: as §1

Gefitinib = compound: COc1cc2ncnc(Nc3ccc(F)c(Cl)c3)c2cc1OCCCN1CCOCC1 [Gefitinib]; conditions: max 10 µM
Procedure, shortened: as §1

Prexasertib = compound: COc1cccc(OCCCN)c1-c1cc(Nc2cnc(C#N)cn2)n[nH]1 [Prexasertib]; conditions: max 1 µM
Procedure, shortened: as §1

Doxorubicin = compound: COc1cccc2c1C(=O)c1c(O)c3c(c(O)c1C2=O)C[C@@](O)(C(=O)CO)C[C@@H]3O[C@H]1C[C@H](N)[C@H](O)[C@H](C)O1 [Doxorubicin]; conditions: max 1 µM
Procedure, shortened: as §1

AZD5153 = compound: COc1nnc2ccc(N3CCC(c4ccc(OCCN5CCN(C)C(=O)[C@H]5C)cc4)CC3)nn12 [AZD5153]; conditions: max 1 µM
Procedure, shortened: as §1

Lapatinib = compound: CS(=O)(=O)CCNCc1ccc(-c2ccc3ncnc(Nc4ccc(OCc5cccc(F)c5)c(Cl)c4)c3c2)o1 [Lapatinib]; conditions: max 10 µM
Procedure, shortened: as §1

AZD8186 = compound: C[C@@H](Nc1cc(F)cc(F)c1)c1cc(C(=O)N(C)C)cc2c(=O)cc(N3CCOCC3)oc12 [AZD8186]; conditions: max 3 µM
Procedure, shortened: as §1

Crizotinib = compound: C[C@@H](Oc1cc(-c2cnn(C3CCNCC3)c2)cnc1N)c1c(Cl)ccc(F)c1Cl [Crizotinib]; conditions: max 10 µM
Procedure, shortened: as §1

Savolitinib = compound: C[C@@H](c1ccc2nccn2c1)n1nnc2ncc(-c3cnn(C)c3)nc21 [Savolitinib]; conditions: max 1 µM
Procedure, shortened: as §1

AZD6738 = compound: C[C@@H]1COCCN1C2=NC(=NC(=C2)C3(CC3)[S@](=N)(=O)C)C4=C5C=CNC5=NC=C4 [AZD6738]; conditions: max 10 µM
Procedure, shortened: as §1

AZD5991 = compound: Cc1c2c(nn1C)CSCc1cc(n(C)n1)CSc1cc(c3ccccc3c1)OCCCc1c(C(=O)O)n(C)c3c-2c(Cl)ccc13 [AZD5991]; conditions: max 1 µM
Procedure, shortened: as §1

AZD7648 = compound: Cc1cc2ncnn2cc1Nc1ncc2c(n1)n(C1CCOCC1)c(=O)n2C [AZD7648]; conditions: max 10 µM
Procedure, shortened: as §1

Taselisib = compound: Cc1nc(-c2cn3c(n2)-c2ccc(-c4cnn(C(C)(C)C(N)=O)c4)cc2OCC3)n(C(C)C)n1 [Taselisib]; conditions: max 10 µM
Procedure, shortened: as §1

Selumetinib = compound: Cn1cnc2c(F)c(Nc3ccc(Br)cc3Cl)c(C(=O)NOCCO)cc21 [Selumetinib]; conditions: max 10 µM
Procedure, shortened: as §1

Olaparib = compound: O=C(c1cc(Cc2n[nH]c(=O)c3ccccc23)ccc1F)N1CCN(C(=O)C2CC2)CC1 [Olaparib]; conditions: max 10 µM
Procedure, shortened: as §1

MK-2206 = compound: NC1(c2ccc(-c3nc4ccn5c(=O)[nH]nc5c4cc3-c3ccccc3)cc2)CCC1 [MK-2206]; conditions: max 10 µM
Procedure, shortened: as §1

Cell Line	IC50, cell viability 72 h (Capivasertib) [nM]	IC50, cell viability 72 h (AZD1775) [nM]	IC50, cell viability 72 h (Trametinib) [nM]	IC50, cell viability 72 h (Palbociclib) [nM]	IC50, cell viability 72 h (AZD1390) [nM]	IC50, cell viability 72 h (Venetoclax) [nM]	IC50, cell viability 72 h (Dasatinib) [nM]	IC50, cell viability 72 h (SG3199) [nM]	IC50, cell viability 72 h (AZD2811) [nM]	IC50, cell viability 72 h (SN-38) [nM]	IC50, cell viability 72 h (AZD0156) [nM]	IC50, cell viability 72 h (AZD4320) [nM]	IC50, cell viability 72 h (Alisertib) [nM]	IC50, cell viability 72 h (Gefitinib) [nM]	IC50, cell viability 72 h (Prexasertib) [nM]	IC50, cell viability 72 h (Doxorubicin) [nM]	IC50, cell viability 72 h (AZD5153) [nM]	IC50, cell viability 72 h (Lapatinib) [nM]	IC50, cell viability 72 h (AZD8186) [nM]	IC50, cell viability 72 h (Crizotinib) [nM]	IC50, cell viability 72 h (Savolitinib) [nM]	IC50, cell viability 72 h (AZD6738) [nM]	IC50, cell viability 72 h (AZD5991) [nM]	IC50, cell viability 72 h (AZD7648) [nM]	IC50, cell viability 72 h (Taselisib) [nM]	IC50, cell viability 72 h (Selumetinib) [nM]	IC50, cell viability 72 h (Olaparib) [nM]	IC50, cell viability 72 h (MK-2206) [nM]
NOS-1 (Osteosarcoma)	> 10000	757	> 1000	> 10000	> 300	> 1000	192	> 1	> 1000	> 300	> 3000	> 1000	> 10000	> 10000	> 1000	> 1000	119	> 10000	> 3000	7980	> 1000	7740	361	> 10000	1440	> 10000	> 10000	–
OVCA420 (Ovarian Carcinoma)	> 10000	> 3000	156	> 10000	> 300	> 1000	265	> 1	> 1000	> 300	> 3000	> 1000	> 10000	4450	178	> 1000	126	1330	> 3000	> 10000	> 1000	> 10000	> 1000	> 10000	989	7910	> 10000	> 10000
SK-ES-1 (Ewing's Sarcoma)	> 10000	618	> 1000	2390	> 300	> 1000	> 2000	> 1	17.9	1.6	> 3000	150	94.1	> 10000	28	53.3	296	> 10000	> 3000	1410	> 1000	2890	236	> 10000	676	> 10000	2610	–
TCCSUP (Bladder Carcinoma)	> 10000	2310	> 1000	> 10000	> 300	> 1000	> 2000	> 1	> 1000	201	> 3000	> 1000	> 10000	> 10000	165	> 1000	> 1000	> 10000	> 3000	> 10000	> 1000	8380	> 1000	> 10000	> 10000	> 10000	> 10000	–
